pIC50: −log10 of the molar value. Like-named read-outs stand apart in the source and are kept apart here.
Assays:
[1] = tested on: P. falciparum female gametocytes; parameters: method as in Miguel-Blanco et al 2017; conditions: ref Miguel-Blanco et al 2017, read-out: Pf FGAA IC50, cited from earlier work
[2] = tested on: HepG2 cells; conditions: ref Miguel-Blanco et al 2017, cited from earlier work; for HepG2 cytoxicity (Pf FGAA screen): HepG2 value reported with Pf FGAA screen
[3] = tested on: P. falciparum female gametocytes; assay: P. falciparum female gametogenesis assay (Pf FGAA); conditions: 1: YES, 0: NO

| SMILES | pIC50 ([1]; TCAMS library screen) | HepG2 cytoxicity (Pf FGAA screen) [2] [µM] | Is compound selective in assay? Pf FGAA active? [3] | pIC50 [1] | HepG2 cytoxicity ([2]; HepG2 value reported with the Pf FGAA screen) [µM] | Is compound selective in assay? Pf FGAA active? ([3]; >10-fold selectivity over cytotox) |
| --- | --- | --- | --- | --- | --- | --- |
| Cl.N[C@@H](CCNC1CCN(c2cccc(C(F)(F)F)c2)CC1)Cc1ccc(F)c(F)c1 [TCMDC-132301] | 6.36 | 3.76 | 0 (0: NO) |  |  |  |
| O=C(NCC1CCN(Cc2cccc(C(F)(F)F)c2)C1)c1cc(-c2cccc(C(F)(F)F)c2)cs1.O=C(O)C(F)(F)F (stereo not drawn) [TCMDC-134483] | 5.78 | 16.22 | 0 (0: NO) |  |  |  |
| O=C(c1ccc([N+](=O)[O-])o1)N1CCN(c2nc3c(F)cc(F)cc3s2)CC1 [TCMDC-125149] | 5.88 | >100 | 1 (1: YES) |  |  |  |
| CCN1CCN(c2ccc(Nc3c4ccccc4nc4ccccc34)cc2)CC1 [TCMDC-124255] | 6.00 | 4.57 | 0 (0: NO) |  |  |  |
| O=c1c(NCCCN(Cc2ccc(F)cc2)c2ccccn2)c(NCc2cccnc2)c1=O [TCMDC-142311] |  |  |  | 6.44 | >100 | 1 (1: YES) |
| COc1c(CNCCCCCCNCc2c(OC)c(OC)c3ccccc3c2OC)c(OC)c2ccccc2c1OC.CS(=O)(=O)O [TCMDC-137837] | 5.43 | 4.42 | 0 (0: NO) |  |  |  |
| Cc1cc(I)ccc1Nc1nc2nonc2nc1Nc1ccc(I)cc1C [TCMDC-124083] | 5.97 | 0.93 | 0 (0: NO) |  |  |  |
| CN(C)CCNCc1ccc(-c2ccc3c(Nc4ccc(Cl)cc4F)ccnc3c2)o1 [TCMDC-138391] | 5.77 | 0.89 | 0 (0: NO) |  |  |  |
| Fc1cc(Cl)ccc1Nc1ccnc2cc(-c3ccc(CN4CCOCC4)o3)ccc12 [TCMDC-138393] | 6.19 | 5.62 | 0 (0: NO) |  |  |  |
| CCCC(=O)NC(c1ccc(C)cc1)c1ccc2cccnc2c1O (stereo not drawn) [TCMDC-123605] | 5.76 | 9.22 | 0 (0: NO) |  |  |  |
| c1ccc(CNc2cc(-c3ccccn3)nc(-c3ccccn3)n2)cc1 [TCMDC-125421] | 6.49 | 13.04 | 1 (1: YES) |  |  |  |
| c1ccc(-c2nc(NC3CCCCC3)cc(C3CC3)n2)nc1 [TCMDC-125825] | 6.80 | 48.99 | 1 (1: YES) |  |  |  |
| Cc1ccc(Cl)c2sc(N3CCN(C(=O)c4ccc([N+](=O)[O-])o4)CC3)nc12 [TCMDC-124311] | 5.84 | 25.79 | 1 (1: YES) |  |  |  |
| COc1ccc(CNC2Cc3ccccc3C2)cc1-c1ccc(S(=O)(=O)NCCN2CCCC2)s1.O=C(O)C(F)(F)F [TCMDC-132258] | 5.86 | 5.31 | 0 (0: NO) |  |  |  |
| Cc1cccc2nc(-c3ccc(-c4ccc(CNCc5ccc(CN)cc5)cc4)cc3)[nH]c12.O=C(O)C(F)(F)F [TCMDC-132813] | 5.67 | 18.09 | 0 (0: NO) |  |  |  |
| CN(C)c1ccc(-c2csc(C(=O)NCC3CCN(Cc4ccc(C(C)(C)C)cc4)C3)c2)cc1.O=C(O)C(F)(F)F (stereo not drawn) [TCMDC-134449] | 6.22 | 7.24 | 1 (1: YES) |  |  |  |
| O=C(Nc1nc(-c2ccccn2)cs1)c1ccc(Br)s1 [TCMDC-123868] | 5.94 | 37.44 | 1 (1: YES) |  |  |  |
| Clc1ccc(/N=C(/NCCCCCCCN/C(=N\c2ccc(Cl)cc2)Nc2ccc(Cl)cc2)Nc2ccc(Cl)cc2)cc1 [TCMDC-137529] | 6.24 | 2.00 | 0 (0: NO) |  |  |  |
| O=C(O)C(F)(F)F.O=S(=O)(NCCN1CCCC1)c1ccc(-c2cccc(CNC3Cc4ccccc4C3)c2)s1 [TCMDC-132217] | 5.89 | 5.50 | 0 (0: NO) |  |  |  |
| CC1Cc2ccccc2N1S(=O)(=O)c1cccc(C(=O)Nc2nc(-c3ccccn3)cs2)c1 (stereo not drawn) [TCMDC-124559] | 6.47 | 50.12 | 1 (1: YES) |  |  |  |
| Br.CC(C)(Cc1ccc(Cl)cc1)NCCCCCCNCCc1ccc(O)c(O)c1 [TCMDC-131277] | 5.02 | 10.97 | 0 (0: NO) |  |  |  |
| N#Cc1ccc(-c2ccc(C(=O)NCC3CCN(CCN4CCC(c5ccc6c(c5OCC(N)=O)CCCC6)CC4)CC3)cc2)cc1 [TCMDC-134563] | 5.90 | 6.17 | 0 (0: NO) |  |  |  |

| SMILES | pIC50 ([1]; TCAMS library screen) | HepG2 cytoxicity (Pf FGAA screen) [2] [µM] | Is compound selective in assay? Pf FGAA active? [3] | pIC50 [1] | HepG2 cytoxicity ([2]; HepG2 value reported with the Pf FGAA screen) [µM] | Is compound selective in assay? Pf FGAA active? ([3]; >10-fold selectivity over cytotox) |
| --- | --- | --- | --- | --- | --- | --- |
| Cc1cc(-c2ccc(CNC3Cc4ccccc4C3)cc2)ccc1S(=O)(=O)NCCN1CCCC1.O=C(O)C(F)(F)F [TCMDC-132243] | 5.74 | 5.31 | 0 (0: NO) |  |  |  |
| CCCCOc1c(CNCCCCCCNCc2ccc3ccccc3c2OCCCC)ccc2ccccc12.CS(=O)(=O)O [TCMDC-137975] | 5.83 | 2.21 | 0 (0: NO) |  |  |  |
| ON=C(c1nc2ccccc2[nH]1)c1nc2ccccc2[nH]1 [TCMDC-125758] | 6.48 | 4.96 | 1 (1: YES) |  |  |  |
| C=CCc1cccc(CN2CCC(c3cc(=O)[nH]c(-c4ccccn4)n3)CC2)c1O [TCMDC-124851] | 5.76 | 11.49 | 0 (0: NO) |  |  |  |
| COc1cccc(-c2csc(C(=O)NCC3CCN(Cc4ccc(C(C)C)cc4)C3)c2)c1.O=C(O)C(F)(F)F (stereo not drawn) [TCMDC-134439] | 5.86 | 11.51 | 0 (0: NO) |  |  |  |
| O=C(Nc1ccc([N+](=O)[O-])cc1)Nc1cc(OCC(F)(F)F)cc(OCC(F)(F)F)c1 [TCMDC-124533] | 5.94 | 6.24 | 0 (0: NO) |  |  |  |
| NCc1ccc(CNCc2ccc(-c3ccc(-c4nc5cc(C(F)(F)F)ccc5[nH]4)s3)cc2)cc1.O=C(O)C(F)(F)F [TCMDC-132814] | 5.99 | 8.32 | 0 (0: NO) |  |  |  |
| Clc1ccc(-c2csc3ncnc(Cl)c23)cc1 [TCMDC-123811] | 5.80 | 94.46 | 1 (1: YES) |  |  |  |
| O=C(O)C(F)(F)F.c1cc(CN2CCC(CCN3CCCCC3)CC2)cc(-c2csc(-c3nc4ccccc4[nH]3)c2)c1 [TCMDC-133919] | 5.68 | 6.04 | 0 (0: NO) |  |  |  |
| COc1cc(OC)cc(C(=O)Nc2nc(-c3ccccn3)cs2)c1 [TCMDC-125345] | 6.44 | 39.82 | 1 (1: YES) |  |  |  |
| CC(C)N1CCN(C(CN2CCN(CCCOc3ccccc3-c3ccccc3)CC2)c2ccc(F)cc2)CC1.Cl (stereo not drawn) [TCMDC-135499] | 5.85 | 4.32 | 0 (0: NO) |  |  |  |
| NCCCNc1nc(Nc2ccc(C(F)(F)F)cc2F)c2c(=O)[nH]ccc2n1.O=C(O)C(F)(F)F [TCMDC-135056] | 5.80 | 9.30 | 0 (0: NO) |  |  |  |
| Cc1ccc(C)c2sc(N3CCN(C(=O)c4ccc([N+](=O)[O-])o4)CC3)nc12 [TCMDC-124315] | 5.95 | 37.65 | 1 (1: YES) |  |  |  |
| Clc1nc(Cl)c2c(ccn2Cc2ccccc2)n1 [TCMDC-137801] | 5.84 | >100 | 1 (1: YES) |  |  |  |
| COc1ccc(CCNCCCCNCCc2ccc(OC)c3ccccc23)c2ccccc12.CS(=O)(=O)O [TCMDC-137961] | 6.32 | 2.14 | 0 (0: NO) |  |  |  |
| O=C(NCC1CCN(Cc2cccc(C(F)(F)F)c2)C1)c1cc(-c2cccc(Cl)c2)cs1.O=C(O)C(F)(F)F (stereo not drawn) [TCMDC-134485] | 6.05 | 16.03 | 1 (1: YES) |  |  |  |
| CNCCCNCc1ccc(-c2ccc(F)c(Cl)c2)o1.Cl [TCMDC-125237] | 5.73 | 10.60 | 0 (0: NO) |  |  |  |
| Cc1cc(C(F)(F)F)cc(-n2ncc(-c3ccc(C(=O)NCc4ccccc4N)cc3)c2N)n1.O=C(O)C(F)(F)F [TCMDC-136658] | 5.84 | 26.82 | 1 (1: YES) |  |  |  |
| CN1CCC(N2CCN(Cc3cccc(-c4ccc(-c5nc6cc(C(F)(F)F)ccc6[nH]5)cc4)c3)CC2)CC1.O=C(O)C(F)(F)F [TCMDC-133842] | 5.96 | 2.44 | 0 (0: NO) |  |  |  |
| CC(Nc1cc(-c2ccccn2)nc(-c2ccccn2)n1)c1ccccc1 (stereo not drawn) [TCMDC-125420] | 6.68 | 6.18 | 1 (1: YES) |  |  |  |
| CCn1c(-c2nonc2N)nc2c(-c3cccc(NC(=O)Nc4ccc(Cl)cc4)c3)ncc(OCCCN)c21.O=C(O)C(F)(F)F [TCMDC-136152] | 5.77 | 10.96 | 0 (0: NO) |  |  |  |

Source: article PMC6753678, “Fueling Open Innovation for Malaria Transmission-Blocking Drugs: Hundreds of Molecules Targeting Early Parasite Mosquito Stages” (Frontiers in Microbiology, 2019)
